In patent US11267843B2, “Stereodefining L-monomers” (Roche Innovation Center Copenhagen A/S, priority 2016, dated 2022):

Columns and labels:
[1] = Stability determination of amidite in solvent after 24 hours (HPLC-MS, UV 254 nm); format: physicochemical; settings: for Stability at 24 hours: room temperature, grades 1-3, key not given
Description: (§1) To a 1.5 mL vial was added 0.013 mmol of amidite after which the solid material was dissolved in 0.13 mL of solvent. Hereafter, the vial was capped, vortexed, and finally left at room temperature for 24 hours. Then, the dissolved material was visually examined regarding the solubility (FIG. 1). If the solution appeared cloudy or otherwise non-homogenous the solubility was set to “no”.
Stability Determination Method: To complete the analysis the stability of the amidite was investigated using an Agilent 1100 series HPLC-MS with from the following specifications:
Column: Waters XTerra, MS C-18, 5 μm, 2.1×100 mm
Eluent: A: 0.1% sat. NH4OH (aq) in H2O B: 20% A in CH3CN
The mass and UV peak of the mother compound was identified at 0 hours and at 24 hours. Hereafter, the relative stability compared to other by-products was reported by integrating the UV chromatogram (254 nm) and normalizing the area to the chromatogram recorded at 0 hours (FIG. 2).

[2] = Solubility of amidite in solvent, visual examination; format: physicochemical
Description: To investigate the stability and solubility of L-LNA G-DMF and L-LNA G-i-Bu the following experimental procedure was followed:
as §1

Compound: COc1ccc(C(OCC2OC(n3cnc4c(=O)[nH]c(N=CN(C)C)nc43)CC2OP2OC(c3ccccc3)C3CCCN32)(c2ccccc2)c2ccc(OC)cc2)cc1 [D-DNA G-DMF]
- Stability at 24 hours ([1]; solvent DMF): 3
- Stability at 24 hours ([1]; solvent DMSO): 3
- Stability at 24 hours ([1]; solvent Dioxane): 2
- Stability at 24 hours ([1]; solvent MeCN:Acetone (1:1)): 3
- Stability at 24 hours ([1]; solvent MeCN:DCE (1:1)): 3
- Stability at 24 hours ([1]; solvent MeCN:DCM (1:1)): 3
- Stability at 24 hours ([1]; solvent MeCN:Toluene (1:1)): 3
- Stability at 24 hours ([1]; solvent MeCN): 3
- Stability at 24 hours ([1]; solvent THE): 3
- Stability at 24 hours ([1]; solvent Toluene): 3

Compound: COc1ccc(C(OCC2OC(n3cc(C)c(=O)[nH]c3=O)CC2OP2OC(c3ccccc3)C3CCCN32)(c2ccccc2)c2ccc(OC)cc2)cc1 [D-DNA T-DMF]
- Stability at 24 hours ([1]; solvent DCE): 1
- Stability at 24 hours ([1]; solvent DCM): 1
- Stability at 24 hours ([1]; solvent DMF): 3
- Stability at 24 hours ([1]; solvent DMSO): 3
- Stability at 24 hours ([1]; solvent Dioxane): 1
- Stability at 24 hours ([1]; solvent MeCN:Acetone (1:1)): 2
- Stability at 24 hours ([1]; solvent MeCN:DCE (1:1)): 3
- Stability at 24 hours ([1]; solvent MeCN:DCM (1:1)): 3
- Stability at 24 hours ([1]; solvent MeCN:Toluene (1:1)): 3
- Stability at 24 hours ([1]; solvent MeCN): 3
- Stability at 24 hours ([1]; solvent NMP): 3
- Stability at 24 hours ([1]; solvent THE): 1
- Stability at 24 hours ([1]; solvent Toluene): 3

Compound: COc1ccc(C(OCC23COC(C(n4cnc5c(=O)[nH]c(N=CN(C)C)nc54)O2)C3OP2OC(c3ccccc3)C3CCCN32)(c2ccccc2)c2ccc(OC)cc2)cc1 [D-LNA G-DMF]
- solubility in most solvents (side by side comparison) ([2]; most solvents): soluble
- stability in most solvents (side by side comparison) ([1]; most solvents): stable
- Stability at 24 hours ([1]; solvent DCE): 1
- Stability at 24 hours ([1]; solvent DCM): 1
- Stability at 24 hours ([1]; solvent DMF): 1
- Stability at 24 hours ([1]; solvent DMSO): 1
- Stability at 24 hours ([1]; solvent Dioxane): 1
- Stability at 24 hours ([1]; solvent MeCN:Acetone (1:1)): 2
- Stability at 24 hours ([1]; solvent MeCN:DCE (1:1)): 1
- Stability at 24 hours ([1]; solvent MeCN:DCM (1:1)): 1
- Stability at 24 hours ([1]; solvent MeCN:Toluene (1:1)): 3
- Stability at 24 hours ([1]; solvent MeCN): 1
- Stability at 24 hours ([1]; solvent NMP): 3
- Stability at 24 hours ([1]; solvent THE): 2
- Stability at 24 hours ([1]; solvent Toluene): 3

Compound: COc1ccc(C(OCC23COC(C(n4cc(C)c(=O)[nH]c4=O)O2)C3OP2OC(c3ccccc3)C3CCCN32)(c2ccccc2)c2ccc(OC)cc2)cc1 [D-LNA T-DMF]
- Stability at 24 hours ([1]; solvent DCE): 1
- Stability at 24 hours ([1]; solvent DCM): 1
- Stability at 24 hours ([1]; solvent DMF): 2
- Stability at 24 hours ([1]; solvent DMSO): 3
- Stability at 24 hours ([1]; solvent Dioxane): 2
- Stability at 24 hours ([1]; solvent MeCN:Acetone (1:1)): 2
- Stability at 24 hours ([1]; solvent MeCN:DCE (1:1)): 1
- Stability at 24 hours ([1]; solvent MeCN:DCM (1:1)): 1
- Stability at 24 hours ([1]; solvent MeCN:Toluene (1:1)): 3
- Stability at 24 hours ([1]; solvent MeCN): 1
- Stability at 24 hours ([1]; solvent NMP): 3
- Stability at 24 hours ([1]; solvent THE): 1
- Stability at 24 hours ([1]; solvent Toluene): 3

Compound: COc1ccc(C(OCC2OC(n3cnc4c(=O)[nH]c(N=CN(C)C)nc43)CC2OP2OC(c3ccccc3)C3CCCN32)(c2ccccc2)c2ccc(OC)cc2)cc1 [L-DNA G-DMF]
- Stability at 24 hours ([1]; solvent DMF): 3
- Stability at 24 hours ([1]; solvent DMSO): 3
- Stability at 24 hours ([1]; solvent Dioxane): 2
- Stability at 24 hours ([1]; solvent MeCN:Acetone (1:1)): 3
- Stability at 24 hours ([1]; solvent MeCN:DCE (1:1)): 3
- Stability at 24 hours ([1]; solvent MeCN:DCM (1:1)): 3
- Stability at 24 hours ([1]; solvent MeCN:Toluene (1:1)): 3
- Stability at 24 hours ([1]; solvent MeCN): 2
- Stability at 24 hours ([1]; solvent THE): 3
- Stability at 24 hours ([1]; solvent Toluene): 3

Compound: COc1ccc(C(OCC2OC(n3cc(C)c(=O)[nH]c3=O)CC2OP2OC(c3ccccc3)C3CCCN32)(c2ccccc2)c2ccc(OC)cc2)cc1 [L-DNA T-DMF]
- Stability at 24 hours ([1]; solvent DCE): 1
- Stability at 24 hours ([1]; solvent DCM): 1
- Stability at 24 hours ([1]; solvent DMF): 3
- Stability at 24 hours ([1]; solvent DMSO): 3
- Stability at 24 hours ([1]; solvent Dioxane): 1
- Stability at 24 hours ([1]; solvent MeCN:Acetone (1:1)): 3
- Stability at 24 hours ([1]; solvent MeCN:DCE (1:1)): 3
- Stability at 24 hours ([1]; solvent MeCN:DCM (1:1)): 3
- Stability at 24 hours ([1]; solvent MeCN:Toluene (1:1)): 3
- Stability at 24 hours ([1]; solvent MeCN): 3
- Stability at 24 hours ([1]; solvent NMP): 3
- Stability at 24 hours ([1]; solvent THE): 2
- Stability at 24 hours ([1]; solvent Toluene): 3

Compound: COc1ccc(C(OC[C@@]23CO[C@@H]([C@H](n4cnc5c(=O)[nH]c(NC(=O)C(C)C)nc54)O2)[C@@H]3O[P@]2O[C@H](c3ccccc3)[C@@H]3CCCN32)(c2ccccc2)c2ccc(OC)cc2)cc1 [L-LNA G-iBu, N-(9-((1R,3R,4R,7S)-1-((bis(4-methoxyphenyl)(phenyl)methoxy)methyl)-7-(((1R,3R,3aS)-3-phenyltetrahydro-1H,3H-pyrrolo[1,2-c][1,3,2]oxazaphosphol-1-yl)oxy)-2,5-dioxabicyclo[2.2.1]heptan-3-yl)-6-oxo-6,9-dihydro-1H-purin-2-yl)isobutyramide]
- solubility in all solvents investigated ([2]; all solvents investigated (12 different)): soluble
- improvement in stability ([1]; all solvents investigated): significant improvement
- Stability at 24 hours ([1]; solvent DCE): 2
- Stability at 24 hours ([1]; solvent DCM): 2
- Stability at 24 hours ([1]; solvent DMF): 3
- Stability at 24 hours ([1]; solvent DMSO): 3
- Stability at 24 hours ([1]; solvent Dioxane): 1
- Stability at 24 hours ([1]; solvent MeCN:Acetone (1:1)): 2
- Stability at 24 hours ([1]; solvent MeCN:DCE (1:1)): 2
- Stability at 24 hours ([1]; solvent MeCN:DCM (1:1)): 2
- Stability at 24 hours ([1]; solvent MeCN:Toluene (1:1)): 3
- Stability at 24 hours ([1]; solvent MeCN): 2
- Stability at 24 hours ([1]; solvent THE): 2
- Stability at 24 hours ([1]; solvent Toluene): 3

Compound: COc1ccc(C(OCC23COC(C(n4cc(C)c(=O)[nH]c4=O)O2)C3OP2OC(c3ccccc3)C3CCCN32)(c2ccccc2)c2ccc(OC)cc2)cc1 [L-LNA T-DMF]
- Stability at 24 hours ([1]; solvent DCE): 1
- Stability at 24 hours ([1]; solvent DCM): 1
- Stability at 24 hours ([1]; solvent DMF): 1
- Stability at 24 hours ([1]; solvent DMSO): 2
- Stability at 24 hours ([1]; solvent Dioxane): 1
- Stability at 24 hours ([1]; solvent MeCN:Acetone (1:1)): 2
- Stability at 24 hours ([1]; solvent MeCN:DCE (1:1)): 1
- Stability at 24 hours ([1]; solvent MeCN:DCM (1:1)): 1
- Stability at 24 hours ([1]; solvent MeCN:Toluene (1:1)): 3
- Stability at 24 hours ([1]; solvent MeCN): 1
- Stability at 24 hours ([1]; solvent NMP): 2
- Stability at 24 hours ([1]; solvent THE): 1
- Stability at 24 hours ([1]; solvent Toluene): 3
